Measurements: patent US8552024B2, “Azacyclic compounds” (Hoffman-La Roche Inc., priority 2011, dated 2013)

The compounds below were run against T1, human HSL (Homo sapiens, UniProt Q05469) (assay: Human Hormone-Sensitive Lipase (HSL) enzyme inhibition assay (colorimetric, DMPT substrate)). Conditions: human full length HSL-His6; substrate 2,3-dimercapto-1-propanol tributyrate; 37° C., 20 minutes; absorbance at 405 nm; read-out: HSL hum IC50.
T1 construct: overlapping PCR to generate a full length human HSL ORF with a 3′-His6 tag; made in house; host or cells: High 5 insect cells (baculovirus, pFast-BAC)
T1 sequence (Q05469 1-1076): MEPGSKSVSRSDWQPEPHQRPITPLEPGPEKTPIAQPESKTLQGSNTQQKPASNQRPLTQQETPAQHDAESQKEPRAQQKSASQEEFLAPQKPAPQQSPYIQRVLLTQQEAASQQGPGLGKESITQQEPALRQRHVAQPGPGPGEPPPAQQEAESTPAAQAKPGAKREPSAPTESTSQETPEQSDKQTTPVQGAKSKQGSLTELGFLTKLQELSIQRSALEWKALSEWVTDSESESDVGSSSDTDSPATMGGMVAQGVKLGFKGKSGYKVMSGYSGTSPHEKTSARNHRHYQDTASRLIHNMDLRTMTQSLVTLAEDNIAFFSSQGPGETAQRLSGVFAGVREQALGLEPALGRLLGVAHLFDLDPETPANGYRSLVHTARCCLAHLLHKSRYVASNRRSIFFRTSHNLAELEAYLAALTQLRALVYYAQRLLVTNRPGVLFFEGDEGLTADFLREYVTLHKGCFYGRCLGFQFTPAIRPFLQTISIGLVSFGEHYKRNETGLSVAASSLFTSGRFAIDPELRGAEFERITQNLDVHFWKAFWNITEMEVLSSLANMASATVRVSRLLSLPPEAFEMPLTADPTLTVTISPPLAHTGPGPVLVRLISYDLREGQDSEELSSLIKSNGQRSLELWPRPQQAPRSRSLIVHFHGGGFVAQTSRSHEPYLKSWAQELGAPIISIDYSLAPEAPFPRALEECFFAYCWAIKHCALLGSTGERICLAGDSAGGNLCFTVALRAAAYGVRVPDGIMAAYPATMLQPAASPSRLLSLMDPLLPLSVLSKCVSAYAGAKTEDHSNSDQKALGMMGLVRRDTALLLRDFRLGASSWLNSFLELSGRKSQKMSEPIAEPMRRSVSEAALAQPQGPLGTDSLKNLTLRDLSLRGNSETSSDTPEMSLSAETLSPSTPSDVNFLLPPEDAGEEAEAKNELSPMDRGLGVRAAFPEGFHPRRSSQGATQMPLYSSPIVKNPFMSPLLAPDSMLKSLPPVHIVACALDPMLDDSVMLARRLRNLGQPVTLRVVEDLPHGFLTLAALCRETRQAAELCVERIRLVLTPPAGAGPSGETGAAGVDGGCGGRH
Type: biochemical
Procedure: Production of Human full length Hormone Sensitive Lipase-His^6:
1) Cloning: cDNA was prepared from commercial human brain polyA+ RNA and used as a template in overlapping PCR to generate a full length human HSL ORF with a 3′-His6 tag. This full length insert was cloned into the pFast-BAC vector and the DNA-sequence of several single clones was verified. DNA from a correct full length clone with the 3′His6 tag was used to transform the E. coli strain DH10BAC. Resulting bacmid DNA was used to generate a titered baculovirus stock for protein generation. The sequence of the encoded HSL conforms to Swissprot entry Q05469, with the additional C-terminal His6-tag. 2) Protein purification: Culture: 5.5 L, High 5 cells expressing human full length HSL-His^6, 48 hr., containing 25 μM E-64. Cell count: 1.78×10^10 cells/ml, 90% viable. Cells were thawed. On ice, cells were suspended in Base Buffer containing 10% glycerol, 25 mM Tris-Cl, 300 mM NaCl, 10 mM imidazole, 10 mM 2-mercaptoethanol, 2 μg pepstatin/ml, 2 μg leupeptin/ml, 2 μg antipain/ml, pH 8.0 at 4° C. in a final volume of 475 ml with 3.75×10^7 cells/ml. […] was done at 3×30 sec., Lubrol PX was added to 0.2% final concentration followed by stirring for 15 min. at 4° C. and centrifugation at 25 k×g, 60 min., 4° C. Soluble proteins were mixed with 60 ml of pre-washed and equilibrated Ni-NTA Agarose (Qiagen 30210) followed by tumbling end-over-end, 45 min., 4° C., centrifugation 1000 rpm 5 min and letting resin settle 5 min. Supernatant was removed, the resin washed in the centrifuge vessel using 5 volumes of Base Buffer containing 0.2% Lubrol PX. Centrifugation was done again, then the supernatant discarded. The resin was poured onto a 0.8 μm membrane in a disposable filter unit (Nalge 450-0080), and washed with 5 volumes of Base Buffer containing 0.2% Lubrol PX. It was then washed with 30 volumes of Base Buffer containing 60 mM imidazole pH 7.5 at 4° C. The protein was eluated with 5 volumes of 25 mM Tris-Cl, 300 mM NaCl, 200 mM imidazole, 10 mM 2-mercaptoethanol, pH 7.5 at 4° C. by tumbling resin with buffer end-over-end, 30 min., 4° C. The resin was captured on a 0.2 μm membrane disposable filter unit (Millipore SCGP U02 RE) and the eluate collected in the reservoir. The eluate was concentrated using a 30 k MWCO centrifugal filter device (Sartorius Vivascience Vivacell 100, VC1022), to 20 ml. It was then dialyzed overnight at 4° C., two times against 2 L of 10% glycerol, 25 mM Tris-Cl, 300 mM NaCl, 0.2 mM EDTA, 0.2 mM DTT, pH 7.5 at 4° C. The protein was filtered using a 0.22 μm disposable filter unit (Millipore SCGP00525). The protein concentration was calculated from absorbance at 280 nm, using 280=0.67 cm-1 mg-1. Yield was 235 mg, total. The protein was stored at −80° C.
Human Hormone-Sensitive Lipase (HSL) Enzyme Inhibition Assay:
HSL enzyme activity was measured by a colorimetric assay using 2,3-dimercapto-1-propanol tributyrate (Aldrich, St. Louis, Mo.) as a substrate. Typically, 1.5 mM 2,3-dimercapto-1-propanol tributyrate (DMPT) in 100 mM MOPS, pH 7.2, 0.2 mg/ml fatty acid-free BSA was prepared by sonication at 4° C. to homogenous suspension. Test compounds (2 mM stock in DMSO) were diluted 3 fold in series in DMSO. Compound solutions were diluted 24 fold in 1.5 mM DMPT containing solution and 18 ul per well was added to 384-well microplates (Corning Costar). Twelve microliters per well of human HSL (15 ug/ml) was added and the reaction mixture was incubated at 37° C. for 20 minutes. Six microliters of 12 mM dithio-bis-(2-nitrobenzoic acid) (DTNB) in DMSO plus 1.2% SDS and 0.6% Triton X-100 were added and the mixture was incubated at room temperature for 15 minutes. Product production was monitored by reading absorbance at 405 nm on an Envision Reader (PerkinElmer Life and Analytical Sciences, Shelton, Conn.).

Compound | IC50
O=C1N(c2ccc(OC(F)(F)F)cc2)CCC12CCN(c1ccc(C(F)(F)F)cc1F)CC2 [Example 1, 8-(2-Fluoro-4-trifluoromethyl-phenyl)-2-(4-trifluoromethoxy-phenyl)-2,8-diaza-spiro[4.5]decan-1-one] | 0.92 µM
O=C1N(c2ccc(OC(F)(F)F)cc2)CCC12CCN(c1cc(C(F)(F)F)ccc1F)CC2 [Example 2, 8-(2-Fluoro-5-trifluoromethyl-phenyl)-2-(4-trifluoromethoxy-phenyl)-2,8-diaza-spiro[4.5]decan-1-one] | 0.55 µM
O=C1N(c2ccc(OC(F)(F)F)cc2)CCC12CCN(c1ccccc1F)CC2 [Example 3, 8-(2-Fluoro-phenyl)-2-(4-trifluoromethoxy-phenyl)-2,8-diaza-spiro[4.5]decan-1-one] | 0.31 µM
O=C1N(c2ccc(OC(F)(F)F)cc2)CCC12CCN(c1cccc(OC(F)(F)F)c1)CC2 [Example 4, 8-(3-Trifluoromethoxy-phenyl)-2-(4-trifluoromethoxy-phenyl)-2,8-diaza-spiro[4.5]decan-1-one] | 0.63 µM
O=C1N(c2ccc(OC(F)(F)F)cc2)CCC12CCN(c1ccccc1Cl)CC2 [Example 5, 8-(2-Chloro-phenyl)-2-(4-trifluoromethoxy-phenyl)-2,8-diaza-spiro[4.5]decan-1-one] | 0.71 µM
O=C1N(c2ccc(OC(F)(F)F)cc2)CCC12CCN(c1c(F)cccc1F)CC2 [Example 6, 8-(2,6-Difluoro-phenyl)-2-(4-trifluoromethoxy-phenyl)-2,8-diaza-spiro[4.5]decan-1-one] | 0.96 µM
COc1ccccc1N1CCC2(CC1)CCN(c1ccc(OC(F)(F)F)cc1)C2=O [Example 7, 8-(2-Methoxy-phenyl)-2-(4-trifluoromethoxy-phenyl)-2,8-diaza-spiro[4.5]decan-1-one] | 0.11 µM
COc1ccc(C)cc1N1CCC2(CC1)CCN(c1ccc(OC(F)(F)F)cc1)C2=O [Example 8, 8-(2-Methoxy-5-methyl-phenyl)-2-(4-trifluoromethoxy-phenyl)-2,8-diaza-spiro[4.5]decan-1-one] | 0.1 µM
COc1ncccc1N1CCC2(CC1)CCN(c1ccc(OC(F)(F)F)cc1)C2=O [Example 9, 8-(2-Methoxy-pyridin-3-yl)-2-(4-trifluoromethoxy-phenyl)-2,8-diaza-spiro[4.5]decan-1-one] | 0.11 µM
Cc1cnc(F)c(N2CCC3(CC2)CCN(c2ccc(OC(F)(F)F)cc2)C3=O)c1 [Example 10, 8-(2-fluoro-5-methylpyridin-3-yl)-2-(4-(trifluoromethoxy)phenyl)-2,8-diazaspiro[4.5]decan-1-one] | 0.24 µM
Cn1cccc(N2CCC3(CC2)CCN(c2ccc(OC(F)(F)F)cc2)C3=O)c1=O [Example 11, 8-(1-methyl-2-oxo-1,2-dihydropyridin-3-yl)-2-(4-(trifluoromethoxy)phenyl)-2,8-diazaspiro[4.5]decan-1-one] | 0.02 µM
CCCn1cccc(N2CCC3(CC2)CCN(c2ccc(OC(F)(F)F)cc2)C3=O)c1=O [Example 12, 8-(2-Oxo-1-propyl-1,2-dihydro-pyridin-3-yl)-2-(4-trifluoromethoxy-phenyl)-2,8-diaza-spiro[4.5]decan-1-one] | 0.03 µM
O=C1N(c2ccc(OC(F)(F)F)cc2)CCC12CCN(c1ccccc1O)CC2 [Example 13, 8-(2-Hydroxy-phenyl)-2-(4-trifluoromethoxy-phenyl)-2,8-diaza-spiro[4.5]decan-1-one] | 0.05 µM
Cc1ccc(O)c(N2CCC3(CC2)CCN(c2ccc(OC(F)(F)F)cc2)C3=O)c1 [Example 14, 8-(2-Hydroxy-5-methyl-phenyl)-2-(4-trifluoromethoxy-phenyl)-2,8-diaza-spiro[4.5]decan-1-one] | 0.06 µM
O=C1N(c2ccc(OC(F)(F)F)cc2)CCC12CCN(c1cccnc1O)CC2 [Example 15, 8-(2-Hydroxy-pyridin-3-yl)-2-(4-trifluoromethoxy-phenyl)-2,8-diaza-spiro[4.5]decan-1-one] | 0.04 µM
O=C1N(c2ccc(OC(F)(F)F)cc2)CCC12CCN(c1cccc(OCc3ccccc3)n1)CC2 [Example 16, 8-(6-Benzyloxy-pyridin-2-yl)-2-(4-trifluoromethoxy-phenyl)-2,8-diaza-spiro[4.5]decan-1-one] | 0.9 µM
O=C1N(c2ccc(OC(F)(F)F)cc2)CCC12CCN(c1cccc(O)n1)CC2 [Example 17, 8-(6-Hydroxy-pyridin-2-yl)-2-(4-trifluoromethoxy-phenyl)-2,8-diaza-spiro[4.5]decan-1-one] | 0.25 µM
C[C@H](Oc1ccc(N2CCC3(CCN(c4cccn(C)c4=O)CC3)C2=O)cc1)C(F)(F)F [Example 18, 8-(1-Methyl-2-oxo-1,2-dihydro-pyridin-3-yl)-2-[4-((S)-2,2,2-trifluoro-1-methyl-ethoxy)-phenyl]-2,8-diaza-spiro[4.5]decan-1-one] | 0.02 µM
